Measurements reported in patent US8940863B2, “Selective anticancer chimeric peptides which bind neuropilin receptor” (Stella Pharma Corporation, priority 2008, dated 2015).
“Also recorded” adds a separate entry of the source. Where two headings read alike, the source gives them in different places. Non-standard residues stand in square brackets, D forms with d. Residues, ends and D or L forms follow the SMILES beside them. No end group written: not given here.

Experiments:
[1] = test system: H322
[2] = test system: DU145; assay: Cell viability assay (WST-8); assay type: cell-based, human; conditions: 72 hours
[3] = test system: HN-12; assay: Cell viability assay (WST-8); assay type: cell-based, human; conditions: 72 hours
[4] = test system: U251; assay: Short-exposure killing of cancer cells (WST-8); assay type: cell-based, human; conditions: 10 μM
[5] = test system: U251
[6] = test system: MDA-MB-231
[7] = test system: WI-38; conditions: 72 h
[8] = test system: HEK293T; assay type: cell-based
[9] = test system: BxPC-3
[10] = test system: PE cell (pancreatic epidermal); assay: Cell viability assay (WST-8); assay type: cell-based
Excerpt: (§1) Correlation between IC50 values was observed.

[11] = test system: BxPC-3; assay: Short-exposure killing of cancer cells (WST-8); assay type: cell-based, human; conditions: 10 μM
[12] = test system: A172; assay: Cell viability assay (WST-8); assay type: cell-based; conditions: 72 h
[13] = test system: KCCT873; assay: Cell viability assay (WST-8); assay type: cell-based; conditions: 72 h
[14] = test system: human recombinant IL13R protein; assay: BIACORE binding to IL13R
[15] = test system: H322 lung cancer cells; assay: Membrane permeabilization (calcein, confocal); assay type: cell-based, human; conditions: 10 μM; for percentage of influx of medium to the cells over time (words): compared with EB-Lytic peptide
Protocol: Calcein, a soluble fluorescence molecule, was added to H322 lung cancer cells in a glass-bottomed dish at a final concentration of 2 μM. […] At 0 minute, two minutes, five minutes, 10 minutes and 20 minutes after addition of peptide, using Olympus FV1000 confocal laser scanning microscope (Olympus), confocal images were taken.

[16] = test system: human breast cancer cell line MDA-MB-231; assay: Antitumor effect in MDA-MB-231 bearing mouse models; assay type: in vivo, athymic nude mice; conditions: 1 mg/kg intravenously injected; from day 5
[17] = test system: BT-20; assay: Annexin V assay and caspase assay; assay type: cell-based, human; conditions: 5 μM, two hours
Protocol: BT-20 cells were treated for 2 hours at 37° C. with or without EB-lytic chimeric peptide at 5 μM. For determination of caspase activation or Annexin V-positive expression, peptide-treated cultures were simultaneously analyzed for caspase activity and propidium iodide (PI) staining using a carboxyfluorescein FLICA caspase-3&7 assay (Immunochemistry Technologies, Bloomington, Minn.), or, alternatively, for Annexin V labeling and PI staining by multiparametric flow cytometry. Furthermore, in accordance with the manufacturer's instructions, using a confocal laser scanning microscope, terminal deoxynucleotidyl transferase-dUTP nick end labeling (TUNEL) assay was conducted by MEBSTAIN Apoptosis Kit Direct (MBL).
In accordance with the method of Example 1, Annexin V assay and caspase assay were performed. […] For determination of caspase activation or Annexin V-positive expression, peptide-treated cultures were simultaneously analyzed for caspase activity and propidium iodide (PI) staining using a carboxyfluorescein FLICA caspase-3&7 assay (Immunochemistry Technologies, Bloomington, Minn.), or, alternatively, for Annexin V labeling and PI staining by multiparametric flow cytometry. The results are shown in FIG. 20A (Annexin V) and FIG. 20B (caspase activity)

[18] = test system: MRC-5; assay: Cell viability assay (WST-8); conditions: MRC-5 normal cells; 72 hours; mean (Table 2)
[19] = test system: HEK293; conditions: HEK293 normal cells; 72 hours; mean (Table 2)
[20] = test system: LNCaP
[21] = test system: SU.86.86
[22] = test system: BT-20
[23] = molecular target: human recombinant NRP1 protein (Homo sapiens, UniProt O14786); assay: BIACORE binding to NRP1
Protocol: Based on the results of binding three-dimensional structure analysis of NRP1 and a Sema3A, a ligand thereof, partial peptide sequence which is important for binding (NYQWVPYQGRVPYPR (SEQ ID NO: 29)) was designed and chemically synthesized. By BIACORE analysis, binding affinity with human recombinant NRP1 protein was assessed.

[24] = test system: T47D; assay: Cell viability assay (WST-8); assay type: cell-based, human; conditions: 48 h
Excerpt: as §1

[25] = test system: CFPAC-1; conditions: 48 h
[26] = test system: Panc-1; conditions: 48 h
[27] = test system: SK-BR-3; conditions: 48 h
[28] = test system: HuCCT-1; conditions: 48 h
[29] = molecular target: T1, human recombinant IL4R protein (Homo sapiens, UniProt P24394); assay: BIACORE binding to IL4R
T1 sequence (P24394 26-825): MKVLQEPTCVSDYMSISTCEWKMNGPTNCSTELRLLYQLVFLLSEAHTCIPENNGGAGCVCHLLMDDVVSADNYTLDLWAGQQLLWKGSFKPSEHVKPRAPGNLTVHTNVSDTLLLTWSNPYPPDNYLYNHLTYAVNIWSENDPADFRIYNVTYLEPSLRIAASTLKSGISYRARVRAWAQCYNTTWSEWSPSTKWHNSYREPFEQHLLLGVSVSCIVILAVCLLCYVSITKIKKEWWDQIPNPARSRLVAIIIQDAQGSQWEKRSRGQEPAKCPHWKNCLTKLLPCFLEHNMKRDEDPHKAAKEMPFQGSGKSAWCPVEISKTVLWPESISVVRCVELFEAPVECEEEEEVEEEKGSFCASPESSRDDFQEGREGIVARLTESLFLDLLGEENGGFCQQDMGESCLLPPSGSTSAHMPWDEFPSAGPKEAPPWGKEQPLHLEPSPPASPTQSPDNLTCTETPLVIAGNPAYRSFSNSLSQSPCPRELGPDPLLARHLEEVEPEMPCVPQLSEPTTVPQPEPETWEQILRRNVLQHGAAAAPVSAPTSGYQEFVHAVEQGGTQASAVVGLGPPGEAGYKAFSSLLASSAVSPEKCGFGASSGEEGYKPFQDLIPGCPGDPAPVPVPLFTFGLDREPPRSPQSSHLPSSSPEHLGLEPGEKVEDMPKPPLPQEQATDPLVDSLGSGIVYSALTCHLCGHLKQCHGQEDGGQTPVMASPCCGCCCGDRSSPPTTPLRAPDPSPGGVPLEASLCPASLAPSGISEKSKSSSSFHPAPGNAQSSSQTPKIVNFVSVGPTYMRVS

[30] = molecular target: EGFR (Homo sapiens, UniProt P00533); conditions: Li Z et al., FASEB J 2005; read-out: dissociation constant to EGFR; cited from earlier work
[31] = listed as EB (H2R)-Lytic peptide

human recombinant NRP1 protein, sequence (O14786 22-923): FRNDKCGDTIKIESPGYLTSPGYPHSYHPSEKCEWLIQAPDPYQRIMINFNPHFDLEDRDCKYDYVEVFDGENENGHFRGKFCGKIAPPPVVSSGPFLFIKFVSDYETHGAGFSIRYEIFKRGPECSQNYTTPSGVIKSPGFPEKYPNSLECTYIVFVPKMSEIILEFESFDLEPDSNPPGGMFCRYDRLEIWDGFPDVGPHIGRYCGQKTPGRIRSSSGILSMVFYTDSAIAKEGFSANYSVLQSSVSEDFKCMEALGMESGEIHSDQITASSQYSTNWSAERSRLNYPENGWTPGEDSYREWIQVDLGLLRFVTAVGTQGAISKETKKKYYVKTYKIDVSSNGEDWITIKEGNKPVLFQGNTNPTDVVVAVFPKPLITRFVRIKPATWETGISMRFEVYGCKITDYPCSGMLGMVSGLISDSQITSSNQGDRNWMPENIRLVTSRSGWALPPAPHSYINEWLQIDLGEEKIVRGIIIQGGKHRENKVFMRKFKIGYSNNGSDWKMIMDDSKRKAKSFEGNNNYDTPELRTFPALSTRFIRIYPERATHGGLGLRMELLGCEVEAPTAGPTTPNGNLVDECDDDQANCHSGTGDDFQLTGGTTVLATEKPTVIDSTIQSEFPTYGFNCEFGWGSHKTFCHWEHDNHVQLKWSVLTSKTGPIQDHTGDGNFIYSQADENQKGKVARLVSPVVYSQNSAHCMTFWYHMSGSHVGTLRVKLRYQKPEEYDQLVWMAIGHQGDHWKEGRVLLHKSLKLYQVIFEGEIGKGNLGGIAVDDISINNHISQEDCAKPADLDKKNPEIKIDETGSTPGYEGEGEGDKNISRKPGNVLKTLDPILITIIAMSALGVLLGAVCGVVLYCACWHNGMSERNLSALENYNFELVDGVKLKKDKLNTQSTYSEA

YHWYGYTPQNVIGGGGGRLLRRLLRRLLRK (EGFbuf sequence)
cell-killing effect to H322 compared with lung normal cell line MRC-5 ([1]; 0 to 20 μM, 72 hours): cell-killing sensitiveness to cancer cells was high | cell-killing effect of chimeric peptide compared with lytic moiety alone ([1]; H322, 72 hours): cell-killing effect was enhanced | cell-killing effect compared with buf alone [2]: cell-killing effect was enhanced

KDLLLHLKKLFREGQFNGGGKLLLKLLKKLLKLLKKK (IL13-lyticL chimeric peptide)
cell-killing effect compared with LyticL alone [3]: cell-killing effect was enhanced | contact time that sufficiently induces cell death [4]: 10 min | cell-killing effect compared with LyticL alone ([5]; U251, 72 hours): cell-killing effect was enhanced

KQLIRFLKRLDRNGGGKLLLKLLKKLLKLLKKK [IL4-LyticL]
IC50 ([6]; 72 h): 5.6 ± 0.5 µM | cell-killing effect compared with LyticL alone ([6]; MDA-MB-231, 72 hours): cell-killing effect was enhanced | IC50 [7]: 9.8 ± 0.8 µM | IC50 ([8]; 72 h): 7.2 ± 0.7 µM | IC50 ([9]; 72 h): 3.2 ± 0.4 µM | cell-killing effect compared with LyticL alone ([9]; BxPC-3, 72 hours): cell-killing effect was enhanced | IC50 ([10]; PE normal cells, 72 hours, Mean ± SD (Table 4), read-out: IC50): > 20 µM | contact time that sufficiently induces cell death [11]: 10 min | IC50 [12]: 3.8 ± 1.1 µM | IC50 ([5]; 72 h): 3.7 ± 0.1 µM | IC50 [13]: 4.6 ± 0.1 µM

KDLLLHLKKLFREGQFN (IL13R binding peptide) [IL13R-binding peptide]
binding affinity (BIACORE, words) [14]: binding affinity with human recombinant IL13R protein was observed

CC[C@H](C)[C@H](NC(=O)[C@@H](NC(=O)[C@H](CC(N)=O)NC(=O)[C@H](CCC(N)=O)NC(=O)[C@@H]1CCCN1C(=O)[C@@H](NC(=O)[C@H](Cc1ccc(O)cc1)NC(=O)CNC(=O)[C@H](Cc1ccc(O)cc1)NC(=O)[C@H](Cc1c[nH]c2ccccc12)NC(=O)[C@H](CCCNC(=N)N)NC(=O)[C@@H](N)Cc1ccc(O)cc1)[C@@H](C)O)C(C)C)C(=O)NCC(=O)NCC(=O)NCC(=O)N[C@@H](CCCCN)C(=O)N[C@@H](CC(C)C)C(=O)N[C@H](CC(C)C)C(=O)N[C@@H](CC(C)C)C(=O)N[C@@H](CCCCN)C(=O)N[C@H](CC(C)C)C(=O)N[C@@H](CC(C)C)C(=O)N[C@H](CCCCN)C(=O)N[C@H](CCCCN)C(=O)N[C@@H](CC(C)C)C(=O)N[C@@H](CC(C)C)C(=O)N[C@@H](CCCCN)C(=O)N[C@H](CC(C)C)C(=O)N[C@@H](CC(C)C)C(=O)N[C@@H](CCCCN)C(=O)N[C@@H](CCCCN)C(=O)N[C@@H](CCCCN)C(=O)O [EB(H2R)-lytic peptide] (H-YRWYGYTPQNVIGGGKL[dL]LK[dL]L[dK][dK]LLK[dL]LKKK-OH; N-terminus and C-terminus assumed)
number of cells with the membrane disintegrated (green) over time ([15]; 0 to 20 minutes): increases in shorter time | percentage of influx of medium to the cells over time (words) [15, 31]: more rapid | percentage of influx of medium to the cells over time (words) ([15]; listed as EB(H2R)-Lytic peptide): more efficient | IC50 Ratio EB-lytic peptide/EB(H2R)-lytic peptide ([1]; H322): 2.1 | cell-killing effect compared with wild-type EGFR-binding chimeric peptide ([1]; H322, 72 hours): enhanced more | IC50 ([1]; H322 cancer cells, 72 hours, mean (Table 2)): 3.2 µM | antitumor effect [16]: in vivo antitumor effect higher; also recorded: higher antitumor effect in vivo; also recorded: sufficient antitumor effect | Annexin V-positive expression (words) [17, 31]: induces Annexin V-positive expression more strongly | caspase 3,7 activation (words) [17, 31]: induces caspase 3 & 7 activity more strongly | Annexin V-positive expression (words) ([17]; listed as EB(H2R)-lytic): induced Annexin V-positive expression more strongly | caspase 3,7 activation (words) ([17]; listed as EB(H2R)-lytic): induced caspase 3,7 activation more strongly | IC50 Ratio EB-lytic peptide/EB(H2R)-lytic peptide ([9]; BxPC-3): 1.8 | IC50 ([9]; BxPC-3 cancer cells, 72 hours, mean (Table 2)): 6.6 µM | IC50 [18]: > 20 µM | IC50 [19]: > 20 µM | IC50 Ratio EB-lytic peptide/EB(H2R)-lytic peptide ([20]; LNCaP): 2.1 | IC50 ([20]; LNCaP cancer cells, 72 hours, mean (Table 2)): 4.8 µM | IC50 Ratio EB-lytic peptide/EB(H2R)-lytic peptide ([21]; SU.86.86): 1.6 | IC50 ([21]; SU.86.86 cancer cells, 72 hours, mean (Table 2)): 7.4 µM | IC50 Ratio EB-lytic peptide/EB(H2R)-lytic peptide ([5]; U251): 1.4 | IC50 ([5]; U251 cancer cells, 72 hours, mean (Table 2)): 8.4 µM | IC50 Ratio EB-lytic peptide/EB(H2R)-lytic peptide ([22]; BT-20): 3.4 | IC50 ([22]; BT-20 cancer cells, 72 hours, mean (Table 2)): 1.9 µM

NYQWVPYQGRVPYPR (NRP1 binding peptide) [NRP1-binding peptide]
binding affinity (BIACORE, words) [23]: binding affinity with human recombinant NRP1 protein was observed

CC(C)C[C@H](NC(=O)[C@H](CCCCN)NC(=O)[C@@H](CC(C)C)NC(=O)[C@H](CC(C)C)NC(=O)[C@H](CCCCN)NC(=O)[C@H](CCCCN)NC(=O)[C@H](CC(C)C)NC(=O)[C@@H](CC(C)C)NC(=O)[C@@H](CCCCN)NC(=O)[C@H](CCCCN)NC(=O)[C@H](CC(C)C)NC(=O)[C@H](CC(C)C)NC(=O)[C@@H](CCCCN)NC(=O)[C@H](CC(C)C)NC(=O)[C@H](CC(C)C)NC(=O)CNC(=O)CNC(=O)[C@H](CCCNC(=N)N)NC(=O)[C@@H]1CCCN1C(=O)[C@H](Cc1ccc(O)cc1)NC(=O)[C@@H]1CCCN1C(=O)[C@@H](NC(=O)[C@H](CCCNC(=N)N)NC(=O)CNC(=O)[C@H](CCC(N)=O)NC(=O)[C@H](Cc1ccc(O)cc1)NC(=O)[C@@H]1CCCN1C(=O)[C@@H](NC(=O)[C@H](Cc1c[nH]c2ccccc12)NC(=O)[C@H](CCC(N)=O)NC(=O)[C@H](Cc1ccc(O)cc1)NC(=O)[C@@H](N)CC(N)=O)C(C)C)C(C)C)C(=O)O [Sema3A(aa363-377)-nLytic] (H-NYQWVPYQGRVPYPRGGLL[dK]LLK[dK][dL]LKKL[dL]KL-OH; N-terminus and C-terminus assumed)
IC50 ([6]; 48 h): 11.5 µM | IC50 [24]: 4.1 µM | IC50 [25]: 10.6 µM | IC50 ([8]; 48 h): > 20 µM | IC50 [26]: 13.1 µM | IC50 ([9]; 48 h): 12.5 µM | IC50 ([10]; 48 h): > 50 µM | IC50 ([21]; 48 h): 7.9 µM | IC50 [27]: 8 µM | IC50 [28]: 13.6 µM | IC50 ([22]; 48 h): 10.9 µM

KQLIRFLKRLDRN (IL4R binding peptide) [IL4R-binding peptide]
binding affinity (BIACORE, words) [29]: binding affinity with human recombinant IL4R protein was observed

YHWYGYTPQNVI [EB peptide]
Kd [30]: 0.022 µM
